Test results from article PMC10417023, “Imidazole-4-N-acetamide Derivatives as a Novel Scaffold for Selective Targeting of Cyclin Dependent Kinases” (Cancers, 2023).
Read-outs that look alike come from different tables or passages of the source. Values belong to the compound of their own block, whether it stands above or below them.

Legend:
Assay in all cases: […]-ATP radiometric filter-binding kinase assay
Assay type in all cases: biochemical
[1] = molecular target: T1, CDK9/cyclin K (Homo sapiens, UniProt P50750)
T1 construct: purified CDK9/cyclin K complex; with Cyclin-K
T1 sequence (P50750 whole entry): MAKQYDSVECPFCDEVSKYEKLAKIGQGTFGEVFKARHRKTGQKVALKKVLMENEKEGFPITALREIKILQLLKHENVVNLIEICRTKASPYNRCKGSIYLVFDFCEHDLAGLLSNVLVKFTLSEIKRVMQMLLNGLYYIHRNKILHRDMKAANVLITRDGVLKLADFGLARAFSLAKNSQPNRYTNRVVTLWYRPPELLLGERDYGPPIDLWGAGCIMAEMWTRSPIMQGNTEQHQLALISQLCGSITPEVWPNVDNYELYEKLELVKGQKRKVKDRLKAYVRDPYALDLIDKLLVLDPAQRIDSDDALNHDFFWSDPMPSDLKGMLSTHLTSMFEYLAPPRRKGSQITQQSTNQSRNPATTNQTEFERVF
T1 sequence (O75909 whole entry partner): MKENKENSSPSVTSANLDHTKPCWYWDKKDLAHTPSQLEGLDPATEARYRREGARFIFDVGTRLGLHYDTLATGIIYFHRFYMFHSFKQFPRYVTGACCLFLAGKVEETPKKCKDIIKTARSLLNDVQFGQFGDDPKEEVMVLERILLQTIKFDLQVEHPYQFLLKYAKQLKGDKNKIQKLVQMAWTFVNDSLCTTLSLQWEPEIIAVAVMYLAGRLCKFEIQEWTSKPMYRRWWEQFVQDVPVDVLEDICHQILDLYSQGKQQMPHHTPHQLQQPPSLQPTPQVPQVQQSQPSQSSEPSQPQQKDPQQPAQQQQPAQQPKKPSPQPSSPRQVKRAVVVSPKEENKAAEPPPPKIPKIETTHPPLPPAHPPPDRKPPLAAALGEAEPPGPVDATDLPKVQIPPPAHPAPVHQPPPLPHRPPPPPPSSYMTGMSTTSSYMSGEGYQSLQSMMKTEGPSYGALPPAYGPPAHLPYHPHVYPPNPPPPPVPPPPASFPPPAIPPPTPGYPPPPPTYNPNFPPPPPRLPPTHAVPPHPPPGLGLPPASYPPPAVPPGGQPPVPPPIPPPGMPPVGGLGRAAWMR

[2] = molecular target: T2, CDK2/cyclin E (Homo sapiens, UniProt P24941)
T2 construct: purified CDK/cyclin complex; with G1/S-specific cyclin-E1

[3] = molecular target: T3, CDK5/p35 (Homo sapiens, UniProt Q00535)
T3 construct: purified CDK5/p35 complex
T3 sequence (Q00535 whole entry): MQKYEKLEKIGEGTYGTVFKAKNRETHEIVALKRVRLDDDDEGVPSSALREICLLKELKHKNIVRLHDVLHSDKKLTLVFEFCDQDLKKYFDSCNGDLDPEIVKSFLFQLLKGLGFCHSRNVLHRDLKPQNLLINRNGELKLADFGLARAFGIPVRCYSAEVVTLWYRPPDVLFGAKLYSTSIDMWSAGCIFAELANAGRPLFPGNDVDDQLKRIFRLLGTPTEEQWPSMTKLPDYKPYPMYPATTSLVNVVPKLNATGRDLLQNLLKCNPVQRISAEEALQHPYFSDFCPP
T3 sequence (Q15078 2-307 partner): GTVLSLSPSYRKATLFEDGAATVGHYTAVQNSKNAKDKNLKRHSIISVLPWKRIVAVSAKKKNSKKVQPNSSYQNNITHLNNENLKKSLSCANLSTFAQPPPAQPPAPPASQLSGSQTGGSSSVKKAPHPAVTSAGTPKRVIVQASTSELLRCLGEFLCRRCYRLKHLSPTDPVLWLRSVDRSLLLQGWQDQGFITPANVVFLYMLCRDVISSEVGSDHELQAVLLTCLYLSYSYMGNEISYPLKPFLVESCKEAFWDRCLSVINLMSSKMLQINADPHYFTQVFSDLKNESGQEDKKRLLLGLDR

[4] = molecular target: T4, CDK1/cyclin E (Homo sapiens, UniProt P06493)
T4 construct: purified CDK/cyclin complex; with G1/S-specific cyclin-E1
T4 sequence (P06493 whole entry): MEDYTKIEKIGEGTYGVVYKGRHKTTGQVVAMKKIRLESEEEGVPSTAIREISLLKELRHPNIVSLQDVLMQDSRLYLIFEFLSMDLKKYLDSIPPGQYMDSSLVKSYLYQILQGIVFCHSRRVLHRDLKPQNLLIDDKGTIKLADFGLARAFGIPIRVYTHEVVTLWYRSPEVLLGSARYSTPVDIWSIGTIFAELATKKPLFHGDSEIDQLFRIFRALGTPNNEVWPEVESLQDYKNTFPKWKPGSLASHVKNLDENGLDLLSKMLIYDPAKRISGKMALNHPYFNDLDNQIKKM
T4 sequence (P24864 whole entry partner): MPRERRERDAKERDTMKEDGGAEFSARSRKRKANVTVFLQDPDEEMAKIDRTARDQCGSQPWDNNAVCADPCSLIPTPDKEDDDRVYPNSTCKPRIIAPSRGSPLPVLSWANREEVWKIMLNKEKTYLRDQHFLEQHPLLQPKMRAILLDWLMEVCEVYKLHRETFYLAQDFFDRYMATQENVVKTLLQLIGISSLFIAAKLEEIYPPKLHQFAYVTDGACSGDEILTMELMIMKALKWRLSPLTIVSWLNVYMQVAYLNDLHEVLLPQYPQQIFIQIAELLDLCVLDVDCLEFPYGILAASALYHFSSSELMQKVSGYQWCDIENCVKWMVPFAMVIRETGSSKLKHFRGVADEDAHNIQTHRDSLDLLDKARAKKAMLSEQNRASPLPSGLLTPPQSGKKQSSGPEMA

IC50 ([1]; read-out: Compound 3): 4.3 µM
IC50 ([2]; read-out: Compound 3): 1.2 µM
IC50 ([3]; read-out: Compound 3): 79 µM
IC50 ([4]; read-out: Compound 3): 30 µM
Compound: CC(C(=O)Nc1cn(C(C)C)cn1)c1ccccc1 (racemic) [compound 3, Compound 3]

IC50 ([1]; read-out: Compound 1): 3 µM
IC50 ([2]; read-out: Compound 1): 0.71 µM
IC50 ([3]; read-out: Compound 1): 40 µM
IC50 ([4]; read-out: Compound 1): 14 µM
Compound: CC(C)n1cnc(NC(=O)Cc2ccccc2)c1 [compound 1, Compound 1]

IC50 ([1]; read-out: Compound 2): 1 µM
IC50 ([2]; read-out: Compound 2): 0.16 µM
IC50 ([3]; read-out: Compound 2): 0.88 µM
IC50 ([4]; read-out: Compound 2): 0.72 µM
Compound: CC(C)n1cnc(NC(=O)Cc2ccccc2O)c1 [compound 2, Compound 2]

IC50 ([1]; read-out: Compound 4): 0.88 µM
IC50 ([2]; read-out: Compound 4): 0.27 µM
IC50 ([3]; read-out: Compound 4): 20 µM
IC50 ([4]; read-out: Compound 4): 6.2 µM
Compound: CC(C)n1cnc(NC(=O)Cc2ccccn2)c1 [compound 4, Compound 4]
